Source: patent publication US12168652B2, “Neuromuscular blocking agents” (The Curators of the University of Missouri, priority 2018, dated 2024)
Entries after “also recorded” stand apart in the source; their conditions may differ.

Key:
[1] = test system: rat phrenic nerve, hemi-diaphragm preparation; assay: Rat phrenic nerve hemi-diaphragm preparation, neostigmine reversibility; conditions: FIG. 8, in vitro; for neostigmine reversibility of the loss of strength (muscle weakness): 1 μM neostigmine
Protocol: Male, Sprague-Dawley rats weighing 100-180 g were obtained from Envigo and euthanized by exposure to 4.5% isoflurane followed by exsanguination. Right and left hemi-diaphragms were removed and placed in oxygen bubbled, cold saline until use. The saline contained, in mM, 140 NaCl, 5 KCl, 1.6 CaCl2·6H2O, 1 NaH2PO4, 6 NaHCO3, 5 D-glucose, 10 HEPES, pH 7.2 adjusted with 1 N NaOH, and was bubbled with 100% oxygen at 22° C. The costal cartilage of the hemi-diaphragm was secured to the floor of a 20 mL volume chamber with a metal hook and the crural end attached to a metal hook and thread leading to a force transducer (iWorx Systems, Dover, NH) and a data acquisition program (Labscribe). The phrenic nerve was introduced into a suction electrode and stimulated (pulse width=0.5 msec, supramaximal voltage=1 V) with a train of four, i.e., four stimuli in two seconds, repeated every minute. The first pulse, T1, was used as a measure of muscle strength. […]
In the figure CONTROL is the force of contraction before addition of test substances, TEST is the force after the addition of test substances, NEOSTIG is the force of contraction after the addition of 1 μM neostigmine, ROC is rocuronium, and SUC is succinylcholine.

[2] = target: T1, adult, human muscle, nicotinic acetylcholine receptor (Homo sapiens, UniProt P02708+P11230+Q04844+Q07001); assay: Patch clamp electrophysiology in transfected HEK-293 cells; format: cell-based; conditions: outside-out patch, 10 μM compound, 300 μM acetylcholine, -50 mV; for competition with acetylcholine at the receptor (summary graph): FIG. 9B
T1 construct: expressed in transfected cells; host or cells: HEK-293
Protocol: Patch clamp electrophysiology: HEK-293 cells were transfected with the cDNA for adult, human muscle acetylcholine receptors and prepared for patch clamp recording as described previously. Immediately before the experiment, the culture medium was replace with an extracellular solution (ECS) contains 150 mM NaCl, 5.6 mM KCl, 1.8 mM CaCl2, 1.0 mM MgCl2, and 10 mM HEPES, pH 7.3. Patch pipettes filled with a solution consisting of 140 mM KCl, 5 mM EGTA, 5 mM MgCl2, and 10 mM HEPES, pH 7.3, had resistances of 3 to 4 MΩ. An outside-out patch with a seal resistance of >2 GΩ was excised from a cell and moved into position at the outflow of a HSSE-2 rapid perfusion system (ALA Scientific Instruments, Westbury, NY). The patch was rapidly and transiently perfused with 300 μM acetylcholine to activate >95% of the channels at a holding potential of −50 mV. This was the control trace; the figures show the average of 5 control traces. Subsequently, the same patch was used to test for agonist activity by the carborane compounds by switching to a reservoir containing 300-1000 μM of the compound, repeated 5 times. To test for antagonism, the patch was equilibrated with 10 μM of the compound for >3 s followed by rapid perfusion of 300 μM acetylcholine+compound. Each series of traces using a compound was followed a return to control conditions (recovery) to determine that the control current hadn't changed by more than 20%. The peak current for each series of traces was calculated. The decrease in peak current represented a combination of competitive and open-channel block by the compound. The results are illustrated in FIGS. 9A and 9B.

mice = conditions: FIG. 6; dose response

## 1,2-bis(N, N, N-trimethylpropan-1-aminium)-1,2-closo-carborane di-iodide [compound 1]
[1]
  mechanism of action (depolarizing or non-depolarizing) from neostigmine reversal: non-depolarizing NMBA; also recorded: non-depolarizers
  neostigmine reversibility of the loss of strength (muscle weakness): reversed by neostigmine
[2]
  competition with acetylcholine at the receptor (summary graph): compete with acetylcholine

## 1,7-bis(N, N, N-trimethylpropan-1-aminium)-1,7-closo-carborane di-iodide [compound 2]
[1]
  mechanism of action (depolarizing or non-depolarizing) from neostigmine reversal: non-depolarizing NMBA; also recorded: non-depolarizers
  neostigmine reversibility of the loss of strength (muscle weakness): reversed by neostigmine
[2]
  competition with acetylcholine at the receptor (summary graph): compete with acetylcholine

## 1,12-bis(N, N, N-trimethylpropan-1-aminium)-1,12-closo-carborane di-iodide [compound 3]
[1]
  mechanism of action (depolarizing or non-depolarizing) from neostigmine reversal: non-depolarizing NMBA; also recorded: non-depolarizers
  neostigmine reversibility of the loss of strength (muscle weakness): reversed by neostigmine
[2]; FIG. 9A
  competition with acetylcholine at the receptor (single compound traces): competes reversibly with acetylcholine
[2]
  competition with acetylcholine at the receptor (summary graph): compete with acetylcholine
mice
  relative potency for loss of mouse grip strength as a function of dose injected: more potent than compound 1

## C=CC[N+]1([C@H]2C[C@H]3[C@@H]4CC[C@H]5C[C@H](O)[C@@H](N6CCOCC6)C[C@]5(C)[C@H]4CC[C@]3(C)[C@H]2OC(C)=O)CCCC1 [rocuronium, Rocuronium bromide, reference compound]
[1]
  neostigmine reversibility of the loss of strength (muscle weakness): reversed by neostigmine

## C[N+](C)(C)CCOC(=O)CCC(=O)OCC[N+](C)(C)C [succinylcholine, succinylcholine chloride, reference compound]
[1]
  neostigmine reversibility of the loss of strength (muscle weakness): not reversed by neostigmine
